Test results from patent publication US7968535B2, “Use of azapaullones for preventing and treating pancreatic autoimmune disorders” (Develogen Atkiengesellschaft, priority 2005, dated 2011).

Tests used:
INS-1E cells [1] = assay: DNA-fragmentation ELISA in glucose/palmitate stressed cells; format: cell-based, rat; settings: 2.5 μM, glucose/palmitate 24 hours
Experimental: (§1) The effects of the substance on cell viability, cell growth and specific apoptotic events such as caspases activity and DNA-fragmentation was monitored. INS-1E cell apoptosis was induced by treatment of cell cultures with toxic concentrations of glucose and palmitate for 24 hours. The substance of interest was added to the medium 1 hour prior to the addition of the toxic agents.
DNA-fragmentation is a comparatively late apoptotic event comprising storage of nucleosomal DNA-fragments as mono- and oligo nucleosomes in the cytoplasm. The incubation of INS1-E cells with high concentrations of glucose and palmitate for 24 hours leads to DNA breakdown and the accumulation of nucleosomal DNA fragments in the cytoplasm. The detectable amount of cytosolic nucleosomal DNA fragments was reduced by about 17%, when cells were treated with the apoptosis inducing agents in combination with 10 μM 4-AKP.
(§2) 10,000 Ins-1E cells were seeded per 96-well (black 96-well tissue culture plates, Falcon #353948) in 100 μl culture medium (RPMI 1640 containing 11 mM glucose, 5% FCS, 10 mM HEPES, 50 μM 2-mercaptoethanol, 1 mM MEM sodium pyruvate, 100 U/ml penicillin, 100 μg/ml streptomycin) and cultivated at 37° C., 5% CO2 in humidified atmosphere for 3 days. Media was changed to 100 μl starvation medium (culture medium with only 5 mM glucose, 1% FCS) and the cells were re-incubated for 1 day. Then media was exchanged to starvation medium containing test substances.
(§3) Apoptosis of Ins-1E cells was induced by addition of a combination of BSA coupled palmitate and glucose (pal/gluc) or a combination of cytokines (cyt) 1 hour after starting the treatment with test substances: pal/gluc: 0.3 mM palmitate:BSA (palmitic acid sodium salt:fatty acid free BSA 6:1) and 25 mM glucose. 10×cyt: 0.04 ng/ml IL-1β and 1 ng/ml IFNγ. The cells were further incubated with test substances and apoptotic inducer for 24 hours.
DNA-fragmentation is a late apoptotic event comprising storage of nucleosomal DNA-fragments as mono- and oligo nucleosomes in the cytoplasm. Their concentration was determined by ELISA (Cell death detection ELISA, Roche, cat. No. 1774425) according to the manufacturers guidelines.

INS-1E cells [2] = assay: Caspase activity assay in glucose/palmitate stressed cells; format: cell-based, rat; settings: 2.5 μM
Experimental: as §1
Caspase activation is a characteristic of early apoptotic cells. The experiment was carried out as described above with the exception that the caspases activity assay was applied instead of the DNA-fragmentation assay (see Example 3 for details).
as §2, §3
Caspase activity is a characteristic of early apoptotic cells. Their activity was quantified by an enzymatic assay (homogeneous caspases assay, Roche, cat. No. 03 005 372 001). Caspase activity was measured 3 hours after addition of caspases substrate according to the manufacturers guidelines.

INS-1E cells [3] = assay: Glucolipotoxicity induced apoptosis of INS-1E cells (overall assessment); format: cell-based, rat; settings: palmitate and glucose, 24 hours
Experimental: as §1
The effects of the test compounds on beta cell function were assessed using biological assays monitoring cellular metabolic activity as well as specific apoptotic events in Ins-1E cells.
as §2, §3

primary rat beta cells = assay: Replication of primary rat beta cells (Ki67/C-peptide immunofluorescence); format: cell-based; settings: islets treated for 72 hours
Experimental: Cells expressing the proliferation marker Ki67 as well as C-peptide were considered to be replicating beta cells. The percentage of replicating beta cells in islets not exposed to compound 10c (Co.) and islet treated for 72 hours with the indicated amounts of compound 10c was determined by immunofluorescence microscopy.
Isolated rat islets were cultured for 72 hours in the presence of compound 10c before the islets were disaggregated and dispersed on microscope slides. Replicating beta cells were identified by immunohistological staining of dispersed islets with antibodies against C-peptide, a proteolytic fragment of proinsulin, and the cell division marker Ki-67.
Islets of Langerhans are isolated by standard Liberase digestion method from rat pancreata (Liberase™ Cl enzyme blend BMB Cat. #1814-435, ROCHE).
Freshly isolated islets are cultured in vitro with or without the addition of the factor of interest for 48 h. Following the culture period the islets are dispersed gently by titration in Ca^2+ and Mg^2+ free PBS. […]
An Olympus microscope equipped with an automatic image acquisition device (Olympus) is used for counting of C-peptide positive beta cells. Proliferating C-peptide/Ki-67 double positive beta cells are counted manually. Thereby the fraction of proliferating beta cells can be determined.

[4] = system: panel of 28 protein kinases; assay: KinaseProfiler biochemical kinase activity assays; settings: tested in parallel with 1-Azakenpaullone
Experimental: Experiments were carried out by Upstate Ltd. according to the protocols described in KinaseProfiler™ Assay Protocols Fall 2004 by Ustate Cell Signaling solutions.
Compounds 10c and e are structurally very similar to 1-Azakenpaullone and differ only by one substituent at position 9 of the D ring from their template 1-Azakenpaullone. […] These kinases were selected among about 250 different kinases based on their structural or functional similarity to GSK3, e.g. all available members of the CDK family were included in the survey because CDKs are most similar to GSK3 and several kinase inhibitors are known that inhibit members of both families. The direct comparison of different compounds in such an experiment provides information on the relative selectivity of the respective compounds.

[5] = molecular target: T1, cyclin dependent kinase 1 (Homo sapiens, UniProt P06493); assay: IC50 Profiler Express kinase assay; format: biochemical
T1 construct: purchased Upstate Ltd. (IC50 Profiler Express service)
Experimental: (§4) Experiments were carried out by Upstate Ltd. according to the protocols described in KinaseProfiler™ Assay Protocols, IC50 Profiler Express™ (10-point curves in duplicate) Fall 2004 by Ustate Cell Signaling solutions.

human GSK3 = assay: IC50 Profiler Express kinase assay; format: biochemical; settings: 10-point curves in duplicate
Experimental: as §4

T1 sequence (P06493 whole entry, species assumed): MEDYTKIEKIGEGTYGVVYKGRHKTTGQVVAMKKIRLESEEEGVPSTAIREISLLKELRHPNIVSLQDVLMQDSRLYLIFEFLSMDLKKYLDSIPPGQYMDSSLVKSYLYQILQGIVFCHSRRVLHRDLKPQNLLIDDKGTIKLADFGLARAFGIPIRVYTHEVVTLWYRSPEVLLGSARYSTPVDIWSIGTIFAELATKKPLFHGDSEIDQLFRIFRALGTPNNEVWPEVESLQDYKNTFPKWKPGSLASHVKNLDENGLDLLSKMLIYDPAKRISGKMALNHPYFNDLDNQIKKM
T1 sequence (P14635 whole entry partner, species assumed): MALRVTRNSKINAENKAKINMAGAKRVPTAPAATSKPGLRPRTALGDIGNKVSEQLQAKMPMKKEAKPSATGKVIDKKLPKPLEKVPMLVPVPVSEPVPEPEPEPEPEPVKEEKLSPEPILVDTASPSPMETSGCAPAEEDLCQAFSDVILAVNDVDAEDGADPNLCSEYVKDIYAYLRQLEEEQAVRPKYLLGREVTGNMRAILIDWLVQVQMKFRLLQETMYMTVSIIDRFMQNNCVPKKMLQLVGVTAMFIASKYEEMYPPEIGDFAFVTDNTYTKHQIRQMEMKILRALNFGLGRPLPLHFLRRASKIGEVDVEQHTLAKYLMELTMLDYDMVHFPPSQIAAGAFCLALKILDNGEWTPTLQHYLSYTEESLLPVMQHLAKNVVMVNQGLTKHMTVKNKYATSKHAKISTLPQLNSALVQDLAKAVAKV

For N#Cc1ccc2[nH]c3c(c2c1)CC(=O)Nc1cccnc1-3 [Compound 10c, 6-Oxo-5,6,7,12-tetrahydropyrido[3′,2′:2,3]azepino[4,5-b]indole-9-carbonitrile], the “reduction of cytosolic DNA-fragments” value (INS-1E cells [1]) was 74%, the “reduction of caspase activity” value (INS-1E cells [2]) was 77% and the “effect on glucolipotoxicity induced apoptosis” value (INS-1E cells [3]) was “strongly antagonizes glucolipotoxicity induced apoptosis”. The “replication of primary rat beta cells in culture” value (primary rat beta cells) was “stimulates the replication”, the “kinase selectivity / activity profile” value [4] was “selective kinase inhibitors” and the “affinity to CDK1 relative to 1-Azakenpaullone” value [5] was “higher affinity to CDK1 than the reference compound 1-Azakenpaullone”. The “inhibition of the enzymatic activity of cyclin dependent kinase 1” value ([5]; compared with GSK3) was “comparatively higher concentration of this inhibitor are required” and the “inhibition of human GSK3” value (human GSK3) was “potent inhibitor”.
